From US9745299B2, “Substituted tricyclic benzimidazoles as kinase inhibitors” (SELVITA SA, priority 2012, dated 2017)
Structures can show the parent of a compound that is named as a salt.

Legend:
[1] = target: T1, CDK8/CyclinC (Homo sapiens, UniProt P49336); assay: ADP-Glo Kinase Assay, CDK8/CyclinC; format: biochemical; settings: read-out: % inhibition at 1 μM CDK8/CyclinC; also: ATP at apparent Km (53 µM)
T1 construct: purchased ProQinase, Freiburg, Germany
Method: (§1) Testing of the compounds described in this invention was carried out using the ADP-Glo™ Kinase Assay from Promega Corporation (Madison, Wis., USA).
(§2) The ADP-Glo™ Kinase Assay is a luminescent ADP detection assay to measure kinase activity by quantifying the amount of ADP produced during a kinase reaction. The kinase assay is performed in kinase assay buffer (5 mM MOPS, pH 7.5, 5 mM MgCl2, 0.4 mM EDTA, 1.5 mM DTT). Test samples initially dissolved in DMSO at 10 mM were diluted with the assay buffer to 1000 nM. A 30 μL volume/well of a mixture of substrates containing ATP (final ATP concentration in each kinase assay was equal to its apparent ATP Km).
(§3) The assay was performed in two steps: first, after the kinase reaction, an equal volume of ADP-Glo™ Reagent was added to terminate the kinase reaction and deplete the remaining ATP. Second, the Kinase Detection Reagent was added to simultaneously convert ADP to ATP and allowed the newly synthesized ATP to be measured using a luciferase/luciferin reaction. The luminescent signal generated was proportional to the ADP concentration produced and was correlated with kinase activity.

[2] = target: T2, CDK9/CyclinT (Homo sapiens, UniProt P50750); assay: ADP-Glo Kinase Assay, CDK9/CyclinT; format: biochemical; settings: read-out: % inhibition at 1 μM CDK9/CyclinT; also: ATP at apparent Km (26 µM)
T2 construct: purchased Proqinase, Freiburg, Germany
T2 sequence (P50750 whole entry): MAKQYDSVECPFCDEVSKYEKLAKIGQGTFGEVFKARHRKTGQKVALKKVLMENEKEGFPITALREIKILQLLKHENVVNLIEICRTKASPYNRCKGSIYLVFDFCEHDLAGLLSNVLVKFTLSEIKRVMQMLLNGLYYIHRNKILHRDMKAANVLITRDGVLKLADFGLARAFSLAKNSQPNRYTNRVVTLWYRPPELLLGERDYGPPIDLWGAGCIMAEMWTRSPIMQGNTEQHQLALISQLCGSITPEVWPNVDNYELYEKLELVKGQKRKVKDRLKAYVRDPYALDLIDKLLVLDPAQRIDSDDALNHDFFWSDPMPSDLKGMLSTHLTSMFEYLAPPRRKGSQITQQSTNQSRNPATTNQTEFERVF
T2 sequence (O60563 whole entry partner): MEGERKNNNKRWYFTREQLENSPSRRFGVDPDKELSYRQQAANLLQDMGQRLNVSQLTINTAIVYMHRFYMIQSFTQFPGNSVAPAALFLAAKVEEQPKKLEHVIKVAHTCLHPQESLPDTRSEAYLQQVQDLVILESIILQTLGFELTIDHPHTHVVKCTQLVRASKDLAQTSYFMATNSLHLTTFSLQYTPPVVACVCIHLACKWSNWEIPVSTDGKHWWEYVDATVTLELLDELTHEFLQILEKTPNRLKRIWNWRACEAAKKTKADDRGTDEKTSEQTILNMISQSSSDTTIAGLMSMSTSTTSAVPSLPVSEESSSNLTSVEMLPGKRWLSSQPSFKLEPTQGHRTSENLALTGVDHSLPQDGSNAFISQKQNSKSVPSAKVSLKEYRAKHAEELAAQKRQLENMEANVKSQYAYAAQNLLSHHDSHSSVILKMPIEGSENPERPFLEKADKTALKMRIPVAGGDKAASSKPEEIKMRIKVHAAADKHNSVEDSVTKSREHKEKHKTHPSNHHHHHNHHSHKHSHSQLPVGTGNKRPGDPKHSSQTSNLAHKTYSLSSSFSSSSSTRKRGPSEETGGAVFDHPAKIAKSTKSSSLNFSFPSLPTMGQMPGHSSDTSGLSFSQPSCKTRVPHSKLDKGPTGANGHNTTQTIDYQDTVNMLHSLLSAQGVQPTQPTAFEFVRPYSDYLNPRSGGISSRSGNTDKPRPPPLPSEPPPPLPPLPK
Method: as §1, §2, §3

[3] = target: T3, CDK2/CyclinE (Homo sapiens, UniProt P24941); assay: ADP-Glo Kinase Assay, CDK2/CyclinE; format: biochemical; settings: read-out: % inhibition at 1 μM CDK2/CyclinE
T3 construct: purchased Millipore, Billerica, Mass., USA
Method: as §1, §2, §3

[4] = target: T4, CDK5/p25 (Homo sapiens, UniProt Q00535); assay: ADP-Glo Kinase Assay, CDK5/p25; format: biochemical; settings: read-out: % inhibition at 1 μM CDK5/p25; also: ATP at apparent Km (12 µM)
T4 construct: purchased Millipore, Billerica, Mass., USA
T4 sequence (Q00535 whole entry): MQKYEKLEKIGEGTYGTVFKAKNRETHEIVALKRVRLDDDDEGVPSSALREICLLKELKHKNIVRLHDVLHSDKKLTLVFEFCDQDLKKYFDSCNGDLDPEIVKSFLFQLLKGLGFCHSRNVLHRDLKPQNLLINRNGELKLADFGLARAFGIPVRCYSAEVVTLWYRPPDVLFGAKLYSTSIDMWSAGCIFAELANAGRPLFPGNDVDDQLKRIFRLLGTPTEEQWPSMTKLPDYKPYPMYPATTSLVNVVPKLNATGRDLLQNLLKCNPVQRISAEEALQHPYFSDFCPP
T4 sequence (Q15078 99-307 partner limits assumed): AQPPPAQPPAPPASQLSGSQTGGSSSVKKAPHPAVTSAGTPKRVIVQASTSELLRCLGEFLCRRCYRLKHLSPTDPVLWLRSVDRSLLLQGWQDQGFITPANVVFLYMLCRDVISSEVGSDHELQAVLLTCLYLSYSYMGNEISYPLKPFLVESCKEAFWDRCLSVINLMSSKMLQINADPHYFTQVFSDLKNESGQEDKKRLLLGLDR
Method: as §1, §2, §3

[5] = target: T5, CDK7/CyclinH/MAT1 (Homo sapiens, UniProt P50613); assay: ADP-Glo Kinase Assay, CDK7/CyclinH/MAT1; format: biochemical; settings: read-out: % inhibition at 1 μM CDK7/CyclinH/MAT1
T5 construct: purchased Millipore, Billerica, Mass., USA
T5 sequence (P50613 whole entry): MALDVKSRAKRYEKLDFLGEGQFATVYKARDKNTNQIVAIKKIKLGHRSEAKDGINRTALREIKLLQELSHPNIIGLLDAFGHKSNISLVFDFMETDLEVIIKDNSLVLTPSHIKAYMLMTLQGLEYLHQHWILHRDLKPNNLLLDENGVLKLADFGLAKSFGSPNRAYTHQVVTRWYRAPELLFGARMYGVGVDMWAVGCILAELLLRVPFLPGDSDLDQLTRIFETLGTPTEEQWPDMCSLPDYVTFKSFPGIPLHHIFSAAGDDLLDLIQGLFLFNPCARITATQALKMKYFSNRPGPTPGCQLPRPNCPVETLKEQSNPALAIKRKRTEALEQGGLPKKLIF
T5 sequence (P51946 whole entry partner): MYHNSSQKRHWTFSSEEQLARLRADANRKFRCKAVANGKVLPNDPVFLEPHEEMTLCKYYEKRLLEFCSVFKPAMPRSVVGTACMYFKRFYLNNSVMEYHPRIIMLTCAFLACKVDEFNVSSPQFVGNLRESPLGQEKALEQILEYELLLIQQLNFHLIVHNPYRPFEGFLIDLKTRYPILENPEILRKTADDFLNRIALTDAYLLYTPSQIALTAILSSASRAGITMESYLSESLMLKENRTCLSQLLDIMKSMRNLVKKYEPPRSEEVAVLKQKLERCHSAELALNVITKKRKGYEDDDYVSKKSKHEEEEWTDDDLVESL
T5 sequence (P51948 whole entry partner): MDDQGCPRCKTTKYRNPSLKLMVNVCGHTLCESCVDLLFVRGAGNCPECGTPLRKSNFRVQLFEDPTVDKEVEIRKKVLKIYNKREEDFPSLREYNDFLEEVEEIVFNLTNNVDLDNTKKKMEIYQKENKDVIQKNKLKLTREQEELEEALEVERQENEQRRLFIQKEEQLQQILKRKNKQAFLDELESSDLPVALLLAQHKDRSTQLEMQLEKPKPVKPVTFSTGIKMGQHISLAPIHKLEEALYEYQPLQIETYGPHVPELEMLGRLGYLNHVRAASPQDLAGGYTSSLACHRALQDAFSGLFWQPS
Method: as §1, §2, §3

[6] = test system: HCT116 cells; assay: MTS viability assay, HCT116; format: cell-based; settings: Homo sapiens, HCT-116, HCT116, 72 hour incubation, read-out: IC50 [μM] HCT116 ED50
From the text: (§4) The viability of CDK8 expressing cells can be evaluated using a tetrazolium salt reduction cell-based assay. In viable cells this colorimetric assay can measure mitochondrial reduction of a tetrazolium component (MTS) into an […] formazan product. For MTS viability assay, human colon cancer cell lines were used (SW480 and HCT116 cell lines), containing elevated levels of CDK8 protein and highly dependent on its expression for proliferation [see, Firenstein et al. Nature 455 (25):547-551, (2008)]. These cell lines were used to determine the activity of the compounds provided herein to inhibit CDK8 in intact cells. Human tumor cell lines were obtained from ATCC (Rockville Md. USA). In each case, and by methods known to those practiced in the art of cell culture, vaiability was measured after 72 hour incubation with the compounds provided herein using a standard MTS protocol (CellTiter 96® AQueous Non-Radioactive Cell Proliferation Assay).
(§5) Briefly, cells were plated at 10,000-20,000 cells per well in DMEM medium supplemented with 10% fetal bovine serum. The compound plate was set up by aliquoting into column 1 of a 96-well plate, the negative control (DMSO), aliquoting into column 12 the positive control, and titrating the test compound in serial dilutions into columns 2-11. An aliquot from each well of the compound plate was transferred to the plated cells and then incubated at 37° C. in 5% CO2. 20 μL of MTS tetrazolium was added to each well of optical plate and the cells were incubated at 37° C. in 5% CO2 for 2 hours. The absorbance was measured at 490 nm using a microplate reader.

[7] = test system: SW480 cells; assay: MTS viability assay, SW480; format: cell-based; settings: Homo sapiens, SW480, 72 hour incubation, read-out: IC50 [μM] SW-480 ED50
From the text: as §4, §5

[8] = test system: A549 lung carcinoma; assay: Cytotoxic effects, A549; format: cell-based, human
[9] = test system: HepG2 hepatocarcinoma; assay: Cytotoxic effects, HepG2; format: cell-based, human
[10] = test system: MCF7 breast adenocarcinoma; assay: Cytotoxic effects, MCF7; format: cell-based, human
[11] = test system: MV4-11 acute myelocytic leukemia (AML); assay: Cytotoxic effects, MV4-11; format: cell-based, human
[12] = test system: Rec-1 B-cell lymphoma; assay: Cytotoxic effects, Rec-1; format: cell-based, human
[13] = test system: SK-MEL5 melanoma; assay: Cytotoxic effects, SK-MEL5; format: cell-based, human
[14] = test system: PC-3 adenocarcinoma prostate; assay: Cytotoxic effects, PC-3; format: cell-based, human
[15] = test system: HCT116 tumor; assay: HCT116 xenograft tumor growth in NOD/SCID mice; format: in vivo; settings: oral administration, 30 mg/kg
Method: The substituted Tricyclic Benzimidazoles of the present invention are useful as anti-cancer agents due to their ability to reduce tumor growth in vivo in mammals. Various well-accepted animal models exist for cancer. By way of example, antitumor activity can be evaluated in vivo in murine xenograft models. Briefly, female mice, NOD/SCID, 5-6 weeks old, were used for the study. On the 1st experimental day, 5*10^6 HCT116 cells were suspended in 0.1 ml 0.9% NaCl+Matrigel® (BD Biosciences) (1:1, v:v) and were injected subcutaneously, on the right side just above the groin. As the tumor growth was progressing, the tumor size was measured every day, and the tumor volume was computed from the formula: TV=(a*a*b)/2 in mm3, where a is the short axis in mm, and b is the long axis in mm. When the average tumor volume reached and exceeded 100 mm3, mice were randomized into uniform groups and subjected to the compound administrations. The administration of the compound was performed and continued according to the experimental schedule.
The tumor volume was monitored throughout the study and the tumor growth inhibition (TGI) was computed using the following formula: TGI [%]=((Av Norm TGC−Av Norm TGT)/Av Norm TGC)×100, where Av Norm TGC is the mean (average) normalized tumor growth of the control group, and Av Norm TGT is the mean (average) normalized tumor growth of the treated group. […]

T1 sequence (P49336 whole entry): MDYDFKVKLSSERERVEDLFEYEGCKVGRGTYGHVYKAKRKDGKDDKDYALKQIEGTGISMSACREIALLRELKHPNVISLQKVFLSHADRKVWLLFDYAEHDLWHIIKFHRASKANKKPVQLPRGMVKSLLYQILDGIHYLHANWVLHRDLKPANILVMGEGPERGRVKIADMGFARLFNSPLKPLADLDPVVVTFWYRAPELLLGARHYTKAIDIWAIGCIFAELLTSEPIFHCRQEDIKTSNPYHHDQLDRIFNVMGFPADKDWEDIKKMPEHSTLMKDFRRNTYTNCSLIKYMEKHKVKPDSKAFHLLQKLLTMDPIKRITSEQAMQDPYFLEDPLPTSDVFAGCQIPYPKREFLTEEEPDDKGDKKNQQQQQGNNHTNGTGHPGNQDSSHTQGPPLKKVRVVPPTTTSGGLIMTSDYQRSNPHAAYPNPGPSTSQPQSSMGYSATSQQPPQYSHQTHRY
T1 sequence (P24863 whole entry partner): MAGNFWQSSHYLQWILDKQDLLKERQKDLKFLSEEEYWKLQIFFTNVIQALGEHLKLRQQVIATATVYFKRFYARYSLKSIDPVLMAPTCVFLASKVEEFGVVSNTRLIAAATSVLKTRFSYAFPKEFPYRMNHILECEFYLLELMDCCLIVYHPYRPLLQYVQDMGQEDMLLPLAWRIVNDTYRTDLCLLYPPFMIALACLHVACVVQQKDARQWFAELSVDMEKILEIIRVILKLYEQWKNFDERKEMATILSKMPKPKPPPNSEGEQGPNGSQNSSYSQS

inhibition at 1 µM [1] | inhibition at 1 µM [2] | inhibition at 1 µM [3] | inhibition at 1 µM [4] | inhibition at 1 µM [5] | IC50 [6] | IC50 [7] | SMILES | cytotoxic effects [8] | cytotoxic effects [9] | cytotoxic effects [10] | cytotoxic effects [11] | cytotoxic effects [12] | cytotoxic effects [13] | cytotoxic effects [14] | HCT116 tumor growth (FIG. 1) [15]
76% | 3% | 0% | 13% | 0% | 0.7 µM | 1.1 µM | Cc1c(Br)c(Br)c2c3c1nc(N1CCNCC1)n3CCC2 [Example 1K] | showed cytotoxic effects | showed cytotoxic effects | showed cytotoxic effects | showed cytotoxic effects | showed cytotoxic effects | showed cytotoxic effects | showed cytotoxic effects | Inhibition of HCT116 tumor growth
96% | 55% | 0% | 39% | 21% | 0.4 µM | 1 µM | Brc1c(Br)c2c3c(nc(N4CCNCC4)n3CCC2)c1Br [Example 6, 7,8,9-tribromo-2-(piperazin-1-yl)-5,6-dihydro-4H-imidazo[4,5,1-ij]quinoline maleate] | showed cytotoxic effects | showed cytotoxic effects | showed cytotoxic effects | showed cytotoxic effects | showed cytotoxic effects | showed cytotoxic effects | showed cytotoxic effects | Inhibition of HCT116 tumor growth
